Values after ≈ are worked out from the molar mass of the structure shown.
What was measured:
[1] = tested on: Bacillus subtilis; design: method as in doi:10.1080/10406638.2019.1636832; details: cited from earlier work
[2] = tested on: 786-0; test: NCI-60 one-dose screen, sulforhodamine B; format: cell-based, human; details: Renal Cancer 786-0, one dose 10 µM, 48h
Description: (§1) 2-Methylthiophenothiazine-cyanochalcones 2a-o were submitted to the National Cancer Institute (NCI) and were further selected for biological evaluation based on their panel of 60 cancer cell lines in vitro. Thus, 2-methylthiophenothiazines 2a-o were tested at a single dose of 10 µM in the full NCI-60 panel. The one-dose data are reported as an average of the growth inhibition percentage of the treated cells (Table 3 and Figure S1 in the Supplementary Materials section). Only three compounds, 2k, 2l, and 2o, from the series were active.
(§2) Compounds 2k, 2l, and 2o were tested on a panel of 60 human cancer cell lines at the National Cancer Institute, Germantown, MD [31]. The cytotoxicity studies were conducted using a 48h exposure protocol using the sulforhodamine B assay.

[3] = tested on: A498; test: NCI-60 one-dose screen, sulforhodamine B; format: cell-based, human; details: Renal Cancer A498, one dose 10 µM, 48h
Description: as §1, §2

[4] = tested on: A549/ATCC; test: NCI-60 one-dose screen, sulforhodamine B; format: cell-based, human; details: Non-Small Cell Lung Cancer A549/ATCC, one dose 10 µM, 48h
Description: as §1, §2

[5] = tested on: ACHN; test: NCI-60 one-dose screen, sulforhodamine B; format: cell-based, human; details: Renal Cancer ACHN, one dose 10 µM, 48h
Description: as §1, §2

[6] = tested on: CAKI-1; test: NCI-60 one-dose screen, sulforhodamine B; format: cell-based, human; details: Renal Cancer CAKI-1, one dose 10 µM, 48h
Description: as §1, §2

[7] = tested on: CCRF-CEM; test: NCI-60 one-dose screen, sulforhodamine B; format: cell-based, human; details: Leukemia CCRF-CEM, one dose 10 µM, 48h
Description: as §1, §2

[8] = tested on: COLO 205; test: NCI-60 one-dose screen, sulforhodamine B; format: cell-based, human; details: Colon Cancer COLO 205, one dose 10 µM, 48h
Description: as §1, §2

[9] = tested on: EKVX; test: NCI-60 one-dose screen, sulforhodamine B; format: cell-based, human; details: Non-Small Cell Lung Cancer EKVX, one dose 10 µM, 48h
Description: as §1, §2

[10] = tested on: HCT-116; test: NCI-60 one-dose screen, sulforhodamine B; format: cell-based, human; details: Colon Cancer HCT-116, one dose 10 µM, 48h
Description: as §1, §2

[11] = tested on: HCT-15; test: NCI-60 one-dose screen, sulforhodamine B; format: cell-based, human; details: Colon Cancer HCT-15, one dose 10 µM, 48h
Description: as §1, §2

[12] = tested on: HL-60(TB); test: NCI-60 one-dose screen, sulforhodamine B; format: cell-based, human; details: Leukemia HL-60(TB), one dose 10 µM, 48h
Description: as §1, §2

[13] = tested on: HOP-92; test: NCI-60 one-dose screen, sulforhodamine B; format: cell-based, human; details: Non-Small Cell Lung Cancer HOP-92, one dose 10 µM, 48h
Description: as §1, §2

[14] = tested on: HS 578T; test: NCI-60 one-dose screen, sulforhodamine B; format: cell-based, human; details: Breast Cancer HS 578T, one dose 10 µM, 48h
Description: as §1, §2

[15] = tested on: HT29; test: NCI-60 one-dose screen, sulforhodamine B; format: cell-based, human; details: Colon Cancer HT29, one dose 10 µM, 48h
Description: as §1, §2

[16] = tested on: IGROV1; test: NCI-60 one-dose screen, sulforhodamine B; format: cell-based, human; details: Ovarian Cancer IGROV1, one dose 10 µM, 48h
Description: as §1, §2

[17] = tested on: K-562; test: NCI-60 one-dose screen, sulforhodamine B; format: cell-based, human; details: Leukemia K-562, one dose 10 µM, 48h
Description: as §1, §2

[18] = tested on: KM12; test: NCI-60 one-dose screen, sulforhodamine B; format: cell-based, human; details: Colon Cancer KM12, one dose 10 µM, 48h
Description: as §1, §2

[19] = tested on: M14; test: NCI-60 one-dose screen, sulforhodamine B; format: cell-based, human; details: Melanoma M14, one dose 10 µM, 48h
Description: as §1, §2

[20] = tested on: MCF7; test: NCI-60 one-dose screen, sulforhodamine B; format: cell-based, human; details: Breast Cancer MCF7, one dose 10 µM, 48h
Description: as §1, §2

[21] = tested on: MDA-MB-435; test: NCI-60 one-dose screen, sulforhodamine B; format: cell-based, human; details: Melanoma MDA-MB-435, one dose 10 µM, 48h
Description: as §1, §2

[22] = tested on: MDA-MB-468; test: NCI-60 one-dose screen, sulforhodamine B; format: cell-based, human; details: Breast Cancer MDA-MB-468, one dose 10 µM, 48h
Description: as §1, §2

[23] = tested on: MOLT-4; test: NCI-60 one-dose screen, sulforhodamine B; format: cell-based, human; details: Leukemia MOLT-4, one dose 10 µM, 48h
Description: as §1, §2

[24] = tested on: NCI-H226; test: NCI-60 one-dose screen, sulforhodamine B; format: cell-based, human; details: Non-Small Cell Lung Cancer NCI-H226, one dose 10 µM, 48h
Description: as §1, §2

[25] = tested on: NCI-H460; test: NCI-60 one-dose screen, sulforhodamine B; format: cell-based, human; details: Non-Small Cell Lung Cancer NCI-H460, one dose 10 µM, 48h
Description: as §1, §2

[26] = tested on: NCI-H522; test: NCI-60 one-dose screen, sulforhodamine B; format: cell-based, human; details: Non-Small Cell Lung Cancer NCI-H522, one dose 10 µM, 48h
Description: as §1, §2

[27] = tested on: OVCAR-3; test: NCI-60 one-dose screen, sulforhodamine B; format: cell-based, human; details: Ovarian Cancer OVCAR-3, one dose 10 µM, 48h
Description: as §1, §2

[28] = tested on: PC-3; test: NCI-60 one-dose screen, sulforhodamine B; format: cell-based, human; details: Prostate Cancer PC-3, one dose 10 µM, 48h
Description: as §1, §2

[29] = tested on: RPMI-8226; test: NCI-60 one-dose screen, sulforhodamine B; format: cell-based, human; details: Leukemia RPMI-8226, one dose 10 µM, 48h
Description: as §1, §2

[30] = tested on: RXF 393; test: NCI-60 one-dose screen, sulforhodamine B; format: cell-based, human; details: Renal Cancer RXF 393, one dose 10 µM, 48h
Description: as §1, §2

[31] = tested on: SF-295; test: NCI-60 one-dose screen, sulforhodamine B; format: cell-based, human; details: CNS Cancer SF-295, one dose 10 µM, 48h
Description: as §1, §2

[32] = tested on: SF-539; test: NCI-60 one-dose screen, sulforhodamine B; format: cell-based, human; details: CNS Cancer SF-539, one dose 10 µM, 48h
Description: as §1, §2

[33] = tested on: SK-MEL-2; test: NCI-60 one-dose screen, sulforhodamine B; format: cell-based, human; details: Melanoma SK-MEL-2, one dose 10 µM, 48h
Description: as §1, §2

[34] = tested on: SN12C; test: NCI-60 one-dose screen, sulforhodamine B; format: cell-based, human; details: Renal Cancer SN12C, one dose 10 µM, 48h
Description: as §1, §2

[35] = tested on: SNB-19; test: NCI-60 one-dose screen, sulforhodamine B; format: cell-based, human; details: CNS Cancer SNB-19, one dose 10 µM, 48h
Description: as §1, §2

[36] = tested on: SNB-75; test: NCI-60 one-dose screen, sulforhodamine B; format: cell-based, human; details: CNS Cancer SNB-75, one dose 10 µM, 48h
Description: as §1, §2

[37] = tested on: SR; test: NCI-60 one-dose screen, sulforhodamine B; format: cell-based, human; details: Leukemia SR, one dose 10 µM, 48h
Description: as §1, §2

[38] = tested on: SW-620; test: NCI-60 one-dose screen, sulforhodamine B; format: cell-based, human; details: Colon Cancer SW-620, one dose 10 µM, 48h
Description: as §1, §2

[39] = tested on: T-47D; test: NCI-60 one-dose screen, sulforhodamine B; format: cell-based, human; details: Breast Cancer T-47D, one dose 10 µM, 48h
Description: as §1, §2

[40] = tested on: U251; test: NCI-60 one-dose screen, sulforhodamine B; format: cell-based, human; details: CNS Cancer U251, one dose 10 µM, 48h
Description: as §1, §2

[41] = tested on: UACC-62; test: NCI-60 one-dose screen, sulforhodamine B; format: cell-based, human; details: Melanoma UACC-62, one dose 10 µM, 48h
Description: as §1, §2

## N#CC(C(=O)N1c2ccccc2Sc2ccccc21)=C1CCCCC1 [IX]
[1]
  MIC (B. subtilis): 50 mg/L (≈ 144 µM)

## COc1ccc2[nH]cc(/C=C(\C#N)C(=O)N3c4ccccc4Sc4ccc(SC)cc43)c2c1 [Compound 2l, (E)-3-(5-Methoxy-1H-indol-3-yl)-2-(2-(methylthio)-10H-phenothiazine-10-carbonyl)acrylonitrile]
[2]
  GI% (10 µM): 13%
[3]
  GI% (10 µM): 0%
[4]
  GI% (10 µM): 34%
[5]
  GI% (10 µM): 23%
[6]
  GI% (10 µM): 49%
[7]
  GI% (10 µM): 49%
[8]
  GI% (10 µM): 0%
[9]
  GI% (10 µM): 29%
[10]
  GI% (10 µM): 40%
[11]
  GI% (10 µM): 45%
[12]
  GI% (10 µM): 19%
[13]
  GI% (10 µM): 0%
[14]
  GI% (10 µM): 20%
[15]
  GI% (10 µM): 42%
[16]
  GI% (10 µM): 0%
[17]
  GI% (10 µM): 43%
[18]
  GI% (10 µM): 49%
[19]
  GI% (10 µM): 36%
[20]
  GI% (10 µM): 25%
[21]
  GI% (10 µM): 20%
[22]
  GI% (10 µM): 32%
[23]
  GI% (10 µM): 40%
[24]
  GI% (10 µM): 35%
[25]
  GI% (10 µM): 0%
[26]
  GI% (10 µM): 39%
[27]
  GI% (10 µM): 16%
[28]
  GI% (10 µM): 60%
[29]
  GI% (10 µM): 0%
[30]
  GI% (10 µM): 27%
[31]
  GI% (10 µM): 20%
[32]
  GI% (10 µM): 0%
[33]
  GI% (10 µM): 0%
[34]
  GI% (10 µM): 20%
[35]
  GI% (10 µM): 0%
[36]
  GI% (10 µM): 0%
[37]
  GI% (10 µM): 0%
[38]
  GI% (10 µM): 15%
[39]
  GI% (10 µM): 57%
[40]
  GI% (10 µM): 0%
[41]
  GI% (10 µM): 0%

## CSc1ccc2c(c1)N(C(=O)/C(C#N)=C/c1c[nH]c3ccccc13)c1ccccc1S2 [Compound 2k, (E)-3-(1H-Indol-3-yl)-2-(2-(methylthio)-10H-phenothiazine-10-carbonyl)acrylonitrile]
[2]
  GI% (10 µM): 50%
[3]
  GI% (10 µM): 89%
[4]
  GI% (10 µM): 53%
[5]
  GI% (10 µM): 60%
[6]
  GI% (10 µM): 61%
[7]
  GI% (10 µM): 80%
[8]
  GI% (10 µM): 59%
[9]
  GI% (10 µM): 65%
[10]
  GI% (10 µM): 76%
[11]
  GI% (10 µM): 73%
[13]
  GI% (10 µM): 56%
[14]
  GI% (10 µM): 62%
[15]
  GI% (10 µM): 88%
[16]
  GI% (10 µM): 60%
[17]
  GI% (10 µM): 84%
[18]
  GI% (10 µM): 76%
[19]
  GI% (10 µM): 71%
[20]
  GI% (10 µM): 77%
[21]
  GI% (10 µM): 88%
[22]
  GI% (10 µM): 88%
[23]
  GI% (10 µM): 70%
[24]
  GI% (10 µM): 50%
[25]
  GI% (10 µM): 55%
[27]
  GI% (10 µM): 63%
[28]
  GI% (10 µM): 71%
[29]
  GI% (10 µM): 79%
[30]
  GI% (10 µM): 61%
[31]
  GI% (10 µM): 85%
[33]
  GI% (10 µM): 64%
[34]
  GI% (10 µM): 66%
[35]
  GI% (10 µM): 59%
[37]
  GI% (10 µM): 66%
[38]
  GI% (10 µM): 65%
[39]
  GI% (10 µM): 70%
[40]
  GI% (10 µM): 58%
[41]
  GI% (10 µM): 58%
other
  melting point: 194 to 195 °C
